Data taken from ChEMBL document CHEMBL1133206, “Antifungal rapamycin analogues with reduced immunosuppressive activity” (Bioorg Med Chem Lett, 2000).
pIC50: −log10 of the molar value. ≈ marks a conversion by molar mass, not a printed value.

Columns and labels:
Candida albicans [1] = experiment: In vitro antifungal activity against Candida albicans (CA 62376); Weak; type: functional, organism-based
Homo sapiens = species: Homo sapiens; experiment: Inhibitory activity against human concanavalin-A proliferation assay; type: functional
Candida albicans [2] = experiment: In vitro antifungal activity against […] (CA 34140); Not affected.; type: functional
Aspergillus niger = experiment: In vitro antifungal activity at a minimum inhibitory concentration (~100 ug/mL) against Aspergillus niger; Not affected; type: functional
Candida tropicalis = experiment: In vitro antifungal activity against Candida tropicalis (CT 750); type: functional
Candida albicans [3] = experiment: In vitro for antifungal activity against Candida albicans (CA 579a); type: functional
Candida albicans [4] = experiment: In vitro antifungal activity against Candida albicans (CA 442); Weak; type: functional, organism-based
Nakaseomyces glabratus = experiment: In vitro antifungal activity against Torulopsis glabrata (TG 15545); type: functional
Candida albicans [5] = experiment: In vitro antifungal activity against Candida albicans (CA 10231); type: functional
Pichia kudriavzevii = experiment: In vitro antifungal activity against Candida krusei (CK 28838); type: functional
Candida albicans [6] = experiment: In vitro antifungal activity against Candida albicans (CA 38247); Weak; type: functional, organism-based
[7] = Aspergillus niger, read-out: MIC

Row | Structure (SMILES) | MIC (Candida albicans [1]) | pIC50 (Homo sapiens) | MIC (Candida albicans [2]) | MIC (Aspergillus niger; [7]) | MIC (Candida tropicalis) | MIC (Candida albicans [3]) | MIC (Candida albicans [4]) | MIC (Nakaseomyces glabratus) | MIC (Candida albicans [5]) | MIC (Pichia kudriavzevii) | MIC (Candida albicans [6]) | MIC (Aspergillus niger)
1 | CCCCOC(=O)N(O)[C@@H]1C[C@@H]2CC[C@@H](C)[C@@](O)(O2)C(=O)C(=O)N2CCCC[C@H]2C(=O)O[C@H]([C@H](C)C[C@@H]2CC[C@@H](O)[C@H](OC)C2)CC(=O)[C@H](C)/C=C(\C)[C@@H](O)[C@@H](OC)C(=O)[C@H](C)C[C@H](C)/C=C/C=C/C=C/1C | Weak | 7.08 | ~100 µg/mL (≈ 98.5 µM) | ~100 µg/mL (≈ 98.5 µM) | 1.56 µg/mL (≈ 1.54 µM) | 1.56 µg/mL (≈ 1.54 µM) | Weak | 0.78 µg/mL (≈ 0.768 µM) | 1.56 µg/mL (≈ 1.54 µM) | 0.78 µg/mL (≈ 0.768 µM) | Weak | –
2 | CO[C@@H]1C[C@H](C[C@@H](C)[C@@H]2CC(=O)[C@H](C)/C=C(\C)[C@@H](O)[C@@H](OC)C(=O)[C@H](C)C[C@H](C)/C=C/C=C/C=C(\C)[C@H](N(O)C(N)=O)C[C@@H]3CC[C@@H](C)[C@@](O)(O3)C(=O)C(=O)N3CCCC[C@H]3C(=O)O2)CC[C@H]1O | Weak | 6.42 | ~100 µg/mL (≈ 104 µM) | ~100 µg/mL (≈ 104 µM) | 3.12 µg/mL (≈ 3.26 µM) | 25 µg/mL (≈ 26.1 µM) | Weak | 1.56 µg/mL (≈ 1.63 µM) | 12.5 µg/mL (≈ 13 µM) | 3.12 µg/mL (≈ 3.26 µM) | Weak | ~100 µg/mL (≈ 104 µM)
3 | CO[C@@H]1C[C@H](C[C@@H](C)[C@@H]2CC(=O)[C@H](C)/C=C(\C)[C@@H](O)[C@@H](OC)C(=O)[C@H](C)C[C@H](C)/C=C/C=C/C=C(\C)[C@@H](N(O)C(=O)OCC(C)C)C[C@@H]3CC[C@@H](C)[C@@](O)(O3)C(=O)C(=O)N3CCCC[C@H]3C(=O)O2)CC[C@H]1O | Weak | 6.12 | ~100 µg/mL (≈ 98.5 µM) | ~100 µg/mL (≈ 98.5 µM) | 3.12 µg/mL (≈ 3.07 µM) | 12.5 µg/mL (≈ 12.3 µM) | Weak | 0.78 µg/mL (≈ 0.768 µM) | 3.12 µg/mL (≈ 3.07 µM) | 0.78 µg/mL (≈ 0.768 µM) | Weak | –
4 | CCCOC(=O)N(O)[C@@H]1C[C@@H]2CC[C@@H](C)[C@@](O)(O2)C(=O)C(=O)N2CCCC[C@H]2C(=O)O[C@H]([C@H](C)C[C@@H]2CC[C@@H](O)[C@H](OC)C2)CC(=O)[C@H](C)/C=C(\C)[C@@H](O)[C@@H](OC)C(=O)[C@H](C)C[C@H](C)/C=C/C=C/C=C/1C | Weak | 6.54 | ~100 µg/mL (≈ 99.9 µM) | ~100 µg/mL (≈ 99.9 µM) | 1.56 µg/mL (≈ 1.56 µM) | 3.12 µg/mL (≈ 3.12 µM) | Weak | 1.56 µg/mL (≈ 1.56 µM) | 1.56 µg/mL (≈ 1.56 µM) | 0.78 µg/mL (≈ 0.779 µM) | Weak | –
5 | CO[C@@H]1C[C@H](C[C@@H](C)[C@@H]2CC(=O)[C@H](C)/C=C(\C)[C@@H](O)[C@@H](OC)C(=O)[C@H](C)C[C@H](C)/C=C/C=C/C=C(\C)[C@H](N(O)C(=O)OC(C)C)C[C@@H]3CC[C@@H](C)[C@@](O)(O3)C(=O)C(=O)N3CCCC[C@H]3C(=O)O2)CC[C@H]1O | Weak | 6.66 | ~100 µg/mL (≈ 99.9 µM) | ~100 µg/mL (≈ 99.9 µM) | 25 µg/mL (≈ 25 µM) | 12.5 µg/mL (≈ 12.5 µM) | Weak | 0.78 µg/mL (≈ 0.779 µM) | 6.25 µg/mL (≈ 6.24 µM) | 0.78 µg/mL (≈ 0.779 µM) | Weak | –
6 | CO[C@@H]1C[C@H](C[C@@H](C)[C@@H]2CC(=O)[C@H](C)/C=C(\C)[C@@H](O)[C@@H](OC)C(=O)[C@H](C)C[C@H](C)/C=C/C=C/C=C(\C)[C@H](N(O)C(=O)OCC(C)C)C[C@@H]3CC[C@@H](C)[C@@](O)(O3)C(=O)C(=O)N3CCCC[C@H]3C(=O)O2)CC[C@H]1O | Weak | 6.71 | ~100 µg/mL (≈ 98.5 µM) | ~100 µg/mL (≈ 98.5 µM) | 1.56 µg/mL (≈ 1.54 µM) | 3.12 µg/mL (≈ 3.07 µM) | Weak | 0.78 µg/mL (≈ 0.768 µM) | 1.56 µg/mL (≈ 1.54 µM) | 0.78 µg/mL (≈ 0.768 µM) | Weak | –
7 | CO[C@@H]1C[C@H](C[C@@H](C)[C@@H]2CC(=O)[C@H](C)/C=C(\C)[C@@H](O)[C@@H](OC)C(=O)[C@H](C)C[C@H](C)/C=C/C=C/C=C(\C)[C@H](N(O)C(=O)N3CCCCC3)C[C@@H]3CC[C@@H](C)[C@@](O)(O3)C(=O)C(=O)N3CCCC[C@H]3C(=O)O2)CC[C@H]1O | Weak | 6.10 | ~100 µg/mL (≈ 97.4 µM) | ~100 µg/mL (≈ 97.4 µM) | 6.25 µg/mL (≈ 6.09 µM) | 1.56 µg/mL (≈ 1.52 µM) | Weak | 1.56 µg/mL (≈ 1.52 µM) | 1.56 µg/mL (≈ 1.52 µM) | 1.56 µg/mL (≈ 1.52 µM) | Weak | –
8 | CO[C@H]1C[C@@H]2CC[C@@H](C)[C@@](O)(O2)C(=O)C(=O)N2CCCC[C@H]2C(=O)O[C@H]([C@H](C)C[C@@H]2CC[C@@H](OC(=O)N(C)C)[C@H](OC)C2)CC(=O)[C@H](C)/C=C(\C)[C@@H](O)[C@@H](OC)C(=O)[C@H](C)C[C@H](C)CCCC/C=C/1C | – | 6.31 | – | – | > 100 µg/mL | 50 µg/mL (≈ 50.5 µM) | – | – | 50 µg/mL (≈ 50.5 µM) | 6.25 µg/mL (≈ 6.32 µM) | – | –
9 | CO[C@@H]1C[C@H](C[C@@H](C)[C@@H]2CC(=O)[C@H](C)/C=C(\C)[C@@H](O)[C@@H](OC)C(=O)[C@H](C)C[C@H](C)/C=C/C=C/C=C(\C)[C@@H](N(OC)C(=O)N(C)C)C[C@@H]3CC[C@@H](C)[C@@](O)(O3)C(=O)C(=O)N3CCCC[C@H]3C(=O)O2)CC[C@H]1O | Weak | 5.44 | ~100 µg/mL (≈ 100 µM) | ~100 µg/mL (≈ 100 µM) | 50 µg/mL (≈ 50 µM) | > 100 µg/mL | Weak | 3.12 µg/mL (≈ 3.12 µM) | > 100 µg/mL | 3.12 µg/mL (≈ 3.12 µM) | Weak | –
10 | CO[C@@H]1C[C@H](C[C@@H](C)[C@@H]2CC(=O)[C@H](C)/C=C(\C)[C@@H](O)[C@@H](OC)C(=O)[C@H](C)C[C@H](C)/C=C/C=C/C=C(\C)[C@@H](N(O)C(=O)N(C)C)C[C@@H]3CC[C@@H](C)[C@@](O)(O3)C(=O)C(=O)N3CCCC[C@H]3C(=O)O2)CC[C@H]1O | Weak | 5.69 | ~100 µg/mL (≈ 101 µM) | ~100 µg/mL (≈ 101 µM) | 50 µg/mL (≈ 50.7 µM) | 100 µg/mL (≈ 101 µM) | Weak | 3.12 µg/mL (≈ 3.16 µM) | 100 µg/mL (≈ 101 µM) | – | Weak | –
11 | CO[C@@H]1C[C@H](C[C@@H](C)[C@@H]2CC(=O)[C@H](C)/C=C(\C)[C@@H](O)[C@@H](OC)C(=O)[C@H](C)C[C@H](C)/C=C/C=C/C=C(\C)[C@@H](N(O)C(=O)OC(C)C)C[C@@H]3CC[C@@H](C)[C@@](O)(O3)C(=O)C(=O)N3CCCC[C@H]3C(=O)O2)CC[C@H]1O | Weak | 6.09 | ~100 µg/mL (≈ 99.9 µM) | ~100 µg/mL (≈ 99.9 µM) | 25 µg/mL (≈ 25 µM) | 12.5 µg/mL (≈ 12.5 µM) | Weak | 0.78 µg/mL (≈ 0.779 µM) | 6.25 µg/mL (≈ 6.24 µM) | 0.78 µg/mL (≈ 0.779 µM) | Weak | –
12 | CO[C@H]1C[C@@H]2CC[C@@H](C)[C@@](O)(O2)C(=O)C(=O)N2CCCC[C@H]2C(=O)O[C@H]([C@H](C)C[C@@H]2CC[C@@H](OC(=O)N(C)O)[C@H](OC)C2)CC(=O)[C@H](C)/C=C(\C)[C@@H](O)[C@@H](OC)C(=O)[C@H](C)C[C@H](C)CCCC/C=C/1C | – | 6.36 | – | – | 3.12 µg/mL (≈ 3.15 µM) | 3.12 µg/mL (≈ 3.15 µM) | – | – | 3.12 µg/mL (≈ 3.15 µM) | 1.56 µg/mL (≈ 1.57 µM) | – | –
13 | CO[C@@H]1C[C@H](C[C@@H](C)[C@@H]2CC(=O)[C@H](C)/C=C(\C)[C@@H](O)[C@@H](OC)C(=O)[C@H](C)C[C@H](C)/C=C/C=C/C=C(\C)[C@H](N(O)C(=O)N(C)C)C[C@@H]3CC[C@@H](C)[C@@](O)(O3)C(=O)C(=O)N3CCCC[C@H]3C(=O)O2)CC[C@H]1O | Weak | 5.69 | ~100 µg/mL (≈ 101 µM) | ~100 µg/mL (≈ 101 µM) | 50 µg/mL (≈ 50.7 µM) | 100 µg/mL (≈ 101 µM) | Weak | 3.12 µg/mL (≈ 3.16 µM) | 100 µg/mL (≈ 101 µM) | – | Weak | –
